Laboratory results: the supplement of paper PMC11281043

What was measured:
Settings in all cases: exposure: 6-8 hpf to 5 dpf, scored at 6 dpf
Danio rerio embryo/larva [1] = experiment: max % larvae with any abnormality across tested concentrations; max tested concentration (log10 uM): 2; higher = more toxic; extreme values may be limits of the assay
Danio rerio embryo/larva [2] = experiment: BMC edema; higher = less potent
Description: (§1)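 Zebrafish embryos (with chorion) were exposed from 6-8 hpf to each PFAS (8-point half-log series, top concentration up to 100 uM, 0.4% DMSO, sealed plates, 26 C; n = 6 embryos per concentration), rinsed at 5 dpf and scored at 6 dpf by two blinded observers for mortality, hatching and malformations. Endpoint scores are the % of living larvae affected (dead larvae excluded; […]). Curves were fitted with tcpl (cutoff 16%), and the BMC is the concentration at a benchmark response of 21.6%.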

Danio rerio embryo/larva [3] = experiment: max % larvae unhatched across tested concentrations; max tested concentration (log10 uM): 2; higher = more toxic
Danio rerio embryo/larva [4] = experiment: BMC any abnormality; max tested concentration (log10 uM): 2; higher = less potent
Description: as §1

Danio rerio embryo/larva [5] = experiment: BMC swim bladder non-inflation; higher = less potent
Description: as §1

Danio rerio embryo/larva [6] = experiment: max % larvae dead across tested concentrations; max tested concentration (log10 uM): 2; higher = more toxic; extreme values may be limits of the assay
[7] = max tested concentration (log10 uM): 2
[8] = max tested concentration (log10 uM): 0

Structure (SMILES)	max % larvae (Danio rerio embryo/larva [1])	BMC edema (Danio rerio embryo/larva [2]; [7])	max % larvae unhatched across tested concentrations (Danio rerio embryo/larva [3])	BMC any abnormality (Danio rerio embryo/larva [4])	BMC swim bladder non-inflation (Danio rerio embryo/larva [5]; [7])	BMC edema (Danio rerio embryo/larva [2]; [8])	BMC swim bladder non-inflation (Danio rerio embryo/larva [5]; [8])	max % larvae dead across tested concentrations (Danio rerio embryo/larva [6])
OCC(F)(F)C(F)(F)C(F)(F)C(F)(F)C(F)(F)C(F)(F)F [6:1 Fluorotelomer alcohol]	75%	94.1 µM	0%	73.3 µM	–	–	–	–
OCCCC(F)(F)C(F)(F)C(F)(F)C(F)(F)C(F)(F)C(F)(F)C(F)(F)F [7:3 Fluorotelomer alcohol]	45.8%	–	0%	38.3 µM	99 µM	–	–	–
NS(=O)(=O)C(F)(F)C(F)(F)C(F)(F)C(F)(F)C(F)(F)C(F)(F)C(F)(F)C(F)(F)F [Perfluorooctanesulfonamide]	100%	–	0%	0.261 µM	–	0.563 µM	0.313 µM	–
O=P(O)(O)CCC(F)(F)C(F)(F)C(F)(F)C(F)(F)C(F)(F)C(F)(F)F [2-(Perfluorohexyl)ethylphosphonic acid]	95.8%	22.5 µM	0%	21.9 µM	–	–	–	–
CNS(=O)(=O)C(F)(F)C(F)(F)C(F)(F)C(F)(F)C(F)(F)C(F)(F)C(F)(F)C(F)(F)F [N-Methylperfluorooctanesulfonamide]	95.8%	20.1 µM	0%	0.702 µM	0.439 µM	–	–	–
C=C(C)C(=O)OCC(F)(F)C(F)(F)C(F)(F)C(F)F [1H,1H,5H-Perfluoropentyl methacrylate]	66.7%	–	0%	27.9 µM	–	–	–	66.7%
O=C(Cl)C(F)(F)C(F)(F)C(F)(F)C(F)(F)C(F)(F)C(F)(F)C(F)(F)C(F)(F)F [Perfluorononanoyl chloride]	100%	–	0%	25 µM	–	–	–	100%
O=C(O)C(F)(F)OC(F)(F)C(F)(F)OC(F)(F)C(F)(F)OC(F)(F)F [Perfluoro-3,6,9-trioxadecanoic acid]	100%	–	0%	–	–	–	–	16.7%
OCC(F)(F)C(F)(F)C(F)(F)C(F)(F)C(F)(F)C(F)F [1H,1H,7H-Dodecafluoro-1-heptanol]	8.33%	–	0%	–	–	–	–	0%
FC(F)(F)C(F)(F)C(F)(F)C(F)(F)C(F)(F)C(F)(F)C(F)(F)I [1-Iodopentadecafluoroheptane]	83.3%	–	0%	10.9 µM	56.7 µM	–	–	16.7%
CN(C(=O)C(F)(F)C(F)(F)C(F)(F)F)[Si](C)(C)C [N-Methyl-N-trimethylsilylheptafluorobutyramide]	0%	–	0%	–	–	–	–	0%
O=C(O)C(F)(F)C(F)(F)C(F)(F)C(F)(F)C(F)(F)C(F)(F)C(F)(F)F [Potassium perfluorooctanoate]	16.7%	–	0%	–	–	–	–	16.7%
CCN(CCO)S(=O)(=O)C(F)(F)C(F)(F)C(F)(F)C(F)(F)C(F)(F)C(F)(F)C(F)(F)C(F)(F)F [N-Ethyl-N-(2-hydroxyethyl)perfluorooctane sulfonamide]	12.5%	–	0%	–	–	–	–	0%
NC(=O)C(F)(F)C(F)(F)C(F)(F)C(F)(F)F [Nonafluoropentanamide]	0%	–	0%	–	–	–	–	0%
FC(F)(F)C(F)(F)C(F)(F)CC1CO1 (configuration not stated) [1H,1H-Heptafluorobutyl epoxide]	9.09%	–	0%	–	–	–	–	0%
O=C(O)C=CC(F)(C(F)(F)F)C(F)(F)F [3-(Perfluoroisopropyl)-2-propenoic acid]	16.7%	–	0%	–	–	–	–	0%
C=C(C)C(=O)OCC(F)(F)C(F)(F)C(F)(F)F [(Perfluoropropyl)methyl methacrylate]	8.33%	–	0%	–	–	–	–	0%
O=C(O)C(F)(F)C(F)(F)C(F)(F)C(F)(F)C(=O)O [Perfluorohexanedioic acid]	0%	–	0%	–	–	–	–	0%
NCC(F)(F)C(F)(F)C(F)(F)C(F)(F)C(F)(F)C(F)(F)F [1H,1H-Perfluoroheptylamine]	33.3%	79.2 µM	0%	79.2 µM	–	–	–	0%
OCC(F)(F)OC(F)(F)C(F)(F)OC(F)(F)CO [1H,1H,8H,8H-Perfluoro-3,6-dioxaoctane-1,8-diol]	0%	–	0%	–	–	–	–	0%
OCC(F)(F)C(F)(F)C(F)(F)C(F)F [1H,1H,5H-Perfluoropentanol]	16.7%	–	0%	–	–	–	–	16.7%

Structure (SMILES)	max % larvae (Danio rerio embryo/larva [1])	BMC edema (Danio rerio embryo/larva [2]; [7])	max % larvae unhatched across tested concentrations (Danio rerio embryo/larva [3])	BMC any abnormality (Danio rerio embryo/larva [4])	BMC swim bladder non-inflation (Danio rerio embryo/larva [5]; [7])	BMC edema (Danio rerio embryo/larva [2]; [8])	BMC swim bladder non-inflation (Danio rerio embryo/larva [5]; [8])	max % larvae dead across tested concentrations (Danio rerio embryo/larva [6])
O=S(=O)(O)C(F)(F)C(F)(F)C(F)(F)C(F)(F)C(F)(F)C(F)(F)F [Potassium perfluorohexanesulfonate]	90.9%	–	0%	31.3 µM	–	–	–	–
O=S(=O)(O)C(F)(F)C(F)(F)OC(F)(F)C(F)(F)F [Perfluoro-2-ethoxyethanesulfonic acid]	16.7%	–	0%	–	–	–	–	0%
FC(F)(F)C(F)(F)C(F)(F)C(F)(F)CCI [1H,1H,2H,2H-Perfluorohexyl iodide]	8.33%	–	0%	–	–	–	–	0%
O=C(O)C(F)(F)C(F)(F)F [Perfluoropropanoic acid]	0%	–	0%	–	–	–	–	0%
O=C(O)C(F)(F)C(F)(F)C(F)(F)OC(F)(F)F [Perfluoro(4-methoxybutanoic acid)]	0%	–	0%	–	–	–	–	0%
O=C(Cl)C(F)(F)C(F)(F)C(F)(F)C(F)(F)C(F)(F)C(F)(F)C(F)(F)F [Pentadecafluorooctanoyl chloride]	16.7%	–	0%	–	–	–	–	0%
FC(F)(F)C(F)(F)C(F)(F)C(F)(F)C(F)(F)C(F)(F)I [Perfluoro-1-iodohexane]	0%	–	0%	–	–	–	–	0%
O=C(O)CCC(F)(F)C(F)(F)C(F)(F)F [3:3 Fluorotelomer carboxylic acid]	25%	–	0%	87.8 µM	–	–	–	0%
O=S(=O)(O)CCC(F)(F)C(F)(F)C(F)(F)C(F)(F)C(F)(F)C(F)(F)C(F)(F)C(F)(F)F [8:2 Fluorotelomer sulfonic acid]	0%	–	0%	–	–	–	–	0%
O=S(=O)(O)CCC(F)(F)C(F)(F)C(F)(F)C(F)(F)C(F)(F)C(F)(F)F [6:2 Fluorotelomer sulfonic acid]	16.7%	–	0%	–	–	–	–	16.7%
O=C(O)C(F)(F)C(F)(F)C(F)(F)OC(F)(C(F)(F)F)C(F)(F)F [Perfluoro-4-isopropoxybutanoic acid]	0%	–	0%	–	–	–	–	0%
O=C(O)C(F)(F)OC(F)(F)C(F)(F)OC(F)(F)C(=O)O [Perfluoro-3,6-dioxaoctane-1,8-dioic acid]	0%	–	0%	–	–	–	–	0%
O=C(CC(=O)C(F)(F)F)C(F)(F)F [1,1,1,5,5,5-Hexafluoro-2,4-pentanedione]	0%	–	0%	–	–	–	–	0%
FC(F)(F)C(F)(F)C(F)(F)C(F)(F)C(F)(F)CCI [1-Iodo-1H,1H,2H,2H-perfluoroheptane]	72.9%	31.5 µM	0%	29.3 µM	31.5 µM	–	–	–
NC(=O)C(F)(F)C(F)(F)C(F)(F)C(F)F [Perfluoropentanamide]	0%	–	0%	–	–	–	–	0%
Cc1ccc(S(=O)(=O)OCC(F)(F)C(F)(F)C(F)(F)C(F)(F)C(F)(F)C(F)F)cc1 [1H,1H,7H-Perfluoroheptyl 4-methylbenzenesulfonate]	75%	–	0%	20.3 µM	8.97 µM	–	–	0%
C=CC(=O)OCCC(F)(F)C(F)(F)C(F)(F)C(F)(F)C(F)(F)C(F)(F)C(F)(F)C(F)(F)F [2-(Perfluorooctyl)ethyl acrylate]	0%	–	0%	–	–	–	–	0%
OCC(F)(F)C(F)(F)C(F)(F)CO [Hexafluoroamylene glycol]	0%	–	0%	–	–	–	–	0%
C=CC(=O)OCCC(F)(F)C(F)(F)C(F)(F)C(F)(F)F [2-(Perfluorobutyl)ethyl acrylate]	100%	–	0%	26.3 µM	75.7 µM	–	–	–
FC(F)(F)C(F)(F)CNCC(F)(F)C(F)(F)F [Bis(1H,1H-perfluoropropyl)amine]	16.7%	–	0%	–	–	–	–	0%
